Test results from US20100112099A1, “PHYTOCHEMICAL COMPOSITIONS AND METHODS FOR ACTIVATING AMP-KINASE” (METAPROTEOMICS, LLC, priority 2008, published 2010).

tested on: AMPK; assay: AMPK activation (pT172-AMPK immunoassay) in C2C12 myocytes; assay type: cell-based, mouse; details: 1 mM AICAR, 30 min, average over ten independent assays, 95% CI=1.26-2.21
Procedure: The Model—The C2C12 myocyte model is commonly used to study the potential effects of compounds on muscle tissue in vitro.
Cell culture—Mouse C2C12 myoblasts were obtained from American Type Culture Collection (Manassas, Va.), and were maintained in Dulbecco's modified Eagle's medium (DMEM) supplemented with 10% fetal bovine serum at 37° C. under a humidified atmosphere of 5% CO2.
C2C12 cells were seeded at an initial density of 6×10^4 cells/cm^2 in 24-well plates. For two days, the cells were allowed grow to reach confluence. Following confluence, the cells were forced to differentiate into myocytes by culturing in DMEM supplemented with 2% horse serum for seven days.
Treatment with AICAR—On Day 8 to 10 post differentiation, C2C12 myocytes were incubated in serum-free DMEM plus 0.5% BSA (bovine serum albumin) for three hours. Next, AICAR (Cell Signal, Danvers, Mass.) was dissolved in phosphate buffered saline (PBS) and added to the culture medium to achieve concentrations of 1 mM per column (4 replicates) for 30 min at 37° C.
Measuring activated AMPKα—pT^172-AMPK was quantified using the Biosource AMPKa Immunoassay Kit (Camarillo, Calif.) without modification. Protein content of the cell lysates was determined with the Active Motif fluorescent protein assay reagent (Carlsbad Calif., Hoefelschweiger, B. K., Duerkop, A., and Wolfbeis, O, S, Novel type of general protein assay using a chromogenic and fluorogenic amine-reactive probe. Anal Biochem 2005, 344, 122-9). A Packard Fluorocount spectrofluorometer (Model#BF10000, Meridan, Conn.) was used for protein determination and a MEL312e BIO-KINETICS READER (Bio-Tek Instruments, Winooski, Vt.) was used for quantification of pT^172-AMPK.
Calculation of relative activation of AMPK —pT^172-AMPK was computed per mg lysate protein and then normalized to the dimethyl sulfoxide (DMSO) negative controls. For statistical comparisons, 95% confidence intervals were computed (Excel, Microsoft, Redman, Wash.).
The Model—The C2C12 murine myocyte model as described in Example 1 was used.
Chemicals, Cell Culture and Treatment—Chemicals, cell culture procedures, methods and statistical procedures used were as noted in Example 1.
Test Materials—Phytochemicals or botanical extracts as described in Table 1 were used as the test materials and dosed at 25 μglmL. The concentration for the positive control AICAR run concurrently was 1.0 mM (338 μg/mL).
The Model—The C2C12 murine myocyte model as described in Example 1 was used in this example.
Test Materials—Botanical extracts Ginger Extract (Suan Farma, Hackensack, N.J.), Ginger Root Powder (BI Nutraceuticals, Long Beach, Calif.), and Ginger Powdered Extract 6:1, Zingiber officinale (Draco, San Jose, Calif.) were used as the test materials and dosed at 25 μg/mL. The concentration for the positive control AICAR was 1.0 mM (338 μg/mL).

Row | Compound | increase of pT172-AMPK relative to the DMSO negative controls [fold]
1 | NC(=O)c1ncn([C@@H]2O[C@H](CO)[C@@H](O)[C@H]2O)c1N [AICAR, 5-Aminoimidazole-4-carboxamide ribonucleoside, reference compound] | 1.67

same assay, conditions: test material 25 μg/mL, pT172-AMPK per mg lysate protein normalized to DMSO negative controls

Row | Compound | pAMPK/AMPK.
2 | CCCCC[C@H](O)CC(=O)CCc1ccc(O)c(OC)c1 [6-Gingerol] | 3.52
3 | COc1ccc2cc3[n+](cc2c1OC)CCc1cc2c(cc1-3)OCO2 [Berberine] | 1.26
4 | CC(C)C[C@H](N)C(=O)O [L-Leucine] | 1.29
5 | CC(C)=CCC1=C(O)C(C(=O)CC(C)C)=C(O)C(CC=C(C)C)(CC=C(C)C)C1=O [Lupulone] | 1.63
6 | Oc1ccc(C=Cc2cc(O)cc(O)c2)cc1 [Resveratrol] | 1.25
7 | CNCC(O)c1ccc(O)cc1 (stereo not drawn) [Synephrine] | 2.64
8 | COc1cc(O)c(CC=C(C)C)c(O)c1C(=O)/C=C/c1ccc(O)cc1 [Xanthohumol] | 1.55
9 | Chromium polynicotinate | 1.59
